# Like-named read-outs stand apart in the source and are kept apart here.
# What was measured:
# [1] = test system: NCI-H1568 cells (high MCL1); experiment: Cell proliferation and viability, CellTiter-Glo, 72 hours; format: cell-based; settings: for GI50: geometric mean; for CTGlo-ATS Mean MinResponse % 72 h NCIH1568.1: −100% cidal, 0% static, 100% maximal growth
# How it was run: (§1)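 Cells grown in RPMI-1640 with 10% FBS (Panc line with added insulin and FBS to 15%) were exposed to an 11-point half-log dilution series, typically 10 μM-100 pM, at 0.1% final DMSO. After incubation at 37° C, 5% CO2, ATP content was measured by luminescence and normalized to a time-zero plate and DMSO wells.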
# [2] = test system: Panc 05.04 cells (SF3b K700E mutant); experiment: as above; format: cell-based; settings: for CTGlo-ATS Mean MinResponse % 72 h PANC0504.1: −100% cidal, 0% static, 100% maximal growth; for GI50: geometric mean
# How it was run: as §1
# [3] = test system: Ad2 variant pre-mRNAs spliced in HeLa S3 nuclear extracts; experiment: In vitro splicing assay (IVS), RT-qPCR of spliced product; format: biochemical; settings: geometric mean
# How it was run: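 Ad2 variant pre-mRNA (2 ng) with FTZΔi control RNA in HeLa S3 nuclear extract (8 μg) was pre-incubated with compound or DMSO for 15 min at 30 °C. Splicing ran 90 min at 30 °C after adding 0.5 mM ATP, creatine phosphate and MgCl2. Spliced product was quantified by TaqMan RT-qPCR, normalized to DMSO, and curve-fitted.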
# SF3b complexes = molecular target: T1, SF3b complexes (Homo sapiens, UniProt O75533+Q7RTV0); experiment: Scintillation proximity assay (SPA) with [3H]-labelled pladienolide probe; format: binding; settings: SF3B1 (WT); geometric mean; read-out: SPA-ATS GMean IC50 (nM) SF3B1 (WT)
# T1 construct: endogenous in cells; host or cells: Nuclear extracts; A HeLa S3 extract preparation is described for the in vitro splicing assay
# How it was run: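 SF3b complexes captured from nuclear extracts on anti-SF3B1 antibody SPA beads; test compounds pre-incubated 30 min before 2.5 nM [3H]-pladienolide probe added, then 30 min incubation. Bound probe read by scintillation; values from non-linear regression of concentration–response curves.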
# [4] = NCI-H1568, read-out: CTGlo-ATS GMean GI50 (nM) 72 h NCIH1568.1, NCIH1568.1 cells, 72 h
# [5] = Panc 05.04, read-out: CTGlo-ATS GMean GI50 (nM) 72 h PANC0504.1, PANC0504.1 cells, 72 h
# [6] = Ad2.1 pre-mRNA substrate, read-out: qPCR-IVS-ATS GMean IC50 (nM) Ad2.1
# [7] = Ad2.2 pre-mRNA substrate, read-out: qPCR-IVS-ATS GMean IC50 (nM) Ad2.2
# [8] = NCI-H1568, 72 h, read-out: CTGlo-ATS GMean GI50 (nM) 72 h NCIH1568.1, NCIH1568.1 cells, 72 h
# [9] = Panc 05.04, 72 h, read-out: CTGlo-ATS GMean GI50 (nM) 72 h PANC0504.1, PANC0504.1 cells, 72 h
Structure (SMILES),"GI50 [1, 4] [nM]","CTGlo-ATS Mean MinResponse % 72 h NCIH1568.1 ([1]; NCIH1568.1 cells, 72 h) [%]","CTGlo-ATS Mean MinResponse % 72 h PANC0504.1 ([2]; PANC0504.1 cells, 72 h) [%]","GI50 [2, 5] [nM]","IC50 [3, 6] [nM]","IC50 [3, 7] [nM]",IC50 (SF3b complexes) [nM],"GI50 [1, 8] [nM]","GI50 [2, 9] [nM]"
C/C(=C\c1cc(F)c2cn[nH]c2c1)[C@H]1OC(=O)C[C@H](O)CC[C@H](C)[C@@H](OC(=O)N2CCN(C)CC2)/C=C/[C@@H]1C [Compound 59],14.5,−44.526,−95.512,17.5,13600,46.1,2.75,,
C/C(=C\c1cc(F)cc(-n2ccnc2)c1)[C@H]1OC(=O)C[C@H](O)CC[C@H](C)[C@@H](OC(=O)N2CCN(C)CC2)/C=C/[C@@H]1C [Compound 60],29.9,−42.456,−87.159,26.7,> 25000,55.5,2.99,,
C/C(=C\c1cc(F)cc(N2CCOCC2)c1)[C@H]1OC(=O)C[C@H](O)CC[C@@](C)(O)[C@@H](OC(=O)N2CCN(C)CC2)/C=C/[C@@H]1C [Compound 61],,−38.996,−93.599,,> 25000,114,13.5,46.8,42
C/C(=C\c1cc(F)cc(N2CCOCC2)c1)[C@H]1OC(=O)C[C@H](O)CC[C@@](C)(O)[C@@H](OC(=O)N2CCC(N3CCCCC3)CC2)/C=C/[C@@H]1C [Compound 62],54.9,−57.446,−94.536,40.5,587,52.9,7.86,,
C/C(=C\c1cc(F)cc(N2CCOCC2)c1)[C@H]1OC(=O)C[C@@H](O)CC[C@@](C)(O)[C@@H](OC(=O)N2CCC(N3CCCCC3)CC2)/C=C/[C@@H]1C [Compound 63],39.3,−50.769,−96.440,41.2,18800,52,12.3,,
C/C(=C\c1cc(F)cc(N2CCNC2=O)c1)[C@H]1OC(=O)C[C@H](O)CC[C@H](C)[C@@H](OC(=O)N2CCN(C)CC2)/C=C/[C@@H]1C [Compound 64],6.5,−66.274,−92.050,7.96,116,24.4,3.08,,
C/C(=C\c1cc(F)cc(N2CCN(CCO)C2=O)c1)[C@H]1OC(=O)C[C@H](O)CC[C@H](C)[C@@H](OC(=O)N2CCN(C)CC2)/C=C/[C@@H]1C [Compound 65],,−68.297,−88.951,,26.2,17.3,2.83,5.88,5.74
C/C(=C\c1cc(F)cc(N2CCN(C#CF)C2=O)c1)[C@H]1OC(=O)C[C@H](O)CC[C@H](C)[C@@H](OC(=O)N2CCN(C)CC2)/C=C/[C@@H]1C [Compound 66],11.7,−64.699,−89.623,8.22,206,33.9,2.23,,
C/C(=C\c1cc(F)cc(N2CCN(CCN3CCOCC3)C2=O)c1)[C@H]1OC(=O)C[C@H](O)CC[C@H](C)[C@@H](OC(=O)N2CCN(C)CC2)/C=C/[C@@H]1C [Compound 67],8.6,−75.182,−87.661,7.27,22.7,20.2,1.95,,
C/C(=C\c1cc(F)cc(N2CCN(CC3CC3)C2=O)c1)[C@H]1OC(=O)C[C@H](O)CC[C@H](C)[C@@H](OC(=O)N2CCN(C)CC2)/C=C/[C@@H]1C [Compound 68],12.4,−67.270,−93.925,11.7,1870,35.7,3.39,,
C/C(=C\c1cc(F)cc(N2CCO[C@@H](C)C2)c1)[C@H]1OC(=O)C[C@H](O)CC[C@H](C)[C@@H](OC(=O)N2CCN(C)CC2)/C=C/[C@@H]1C [Compound 69],,−76.018,−86.274,,36.7,20.9,3.83,4.04,7.48
C/C(=C\c1cc(F)cc(N2CCOC(C)C2)c1)[C@H]1OC(=O)C[C@H](O)CC[C@H](C)[C@@H](OC(=O)N2CCN(C)CC2)/C=C/[C@@H]1C (stereo partly drawn) [Compound 70],,−77.042,−83.969,,17.6,16.5,1.55,3.37,5.94
CC[C@H](O)[C@@H](C)CN1CCN(c2cc(F)cc(/C=C(\C)[C@H]3OC(=O)C[C@H](O)CC[C@H](C)[C@@H](OC(=O)N4CCN(C)CC4)/C=C/[C@@H]3C)c2)CC1 [Compound 71],6.39,−92.527,−68.599,11.5,29.7,18.9,3.71,,
CC[C@H](O)[C@@H](C)C(=O)N1CCN(c2cc(F)cc(/C=C(\C)[C@H]3OC(=O)C[C@H](O)CC[C@H](C)[C@@H](OC(=O)N4CCN(C)CC4)/C=C/[C@@H]3C)c2)CC1 [Compound 72],4.19,−80.730,−75.581,5.68,35.8,14,4.66,,
C/C(=C\c1cc(F)cc(N2CCN(S(=O)(=O)CCN3CCOCC3)CC2)c1)[C@H]1OC(=O)C[C@H](O)CC[C@H](C)[C@@H](OC(=O)N2CCN(C)CC2)/C=C/[C@@H]1C [Compound 73],5.85,−76.720,−79.201,6.91,13.1,13.6,2.42,,

# Reference: patent publication US11679107B2 (Eisai R&D Management Co., Ltd., priority 2018, dated 2023)
